For test [1], the system named is isolated pulmonary vessel. The test is described as follows: Relaxant activity on blood vessels isolated from guinea pigs (pulmonary artery). As to conditions: Cavia porcellus; guinea pig pulmonary artery, K+ depolarised, Ca2+ contraction; read-out: IC50 (relaxation of 50%). As for the experimental part: Determination of the relaxant activity of the compounds according to the invention on blood vessels isolated from guinea pigs.
The pulmonary artery of male guinea pigs (350-500 g) is isolated and cut into spiral tracts (1 mm wide, 15 mm long). […] After having removed the calcium from the tissues (Tyrode without calcium and 0.2 mM EDTA), the tracts are depolarised in the presence of a concentrated solution of K^+ ions (40 mM), which is produced by replacing the NaCl by equimolar amounts of KCl, and a contraction of long duration is then induced by Ca^2+ ions (0.5 mM).
The compounds studied are then introduced into the organ cell in increasing concentrations.
Each compound is tested on at least four vessel spiral tracts.

The test system of another test is anesthetised pigs. The test is described as follows: Haemodynamic effects on anesthetised pigs. The class given is in vivo, pigs ("German land" race). As for the experimental part: Haemodynamic effects of the compounds according to the invention on anesthetised pigs or dogs
Pigs are of "German land" race (20-26 kg) and are used after fasting overnight.
In the case of pigs, sedation, analgesia and anesthesia are induced by ketamine HCl (20 mg/kg i.m.), methonidate HCl (10 mg/kg i.m.), xylacine HCl (3 mg/kg i.m.) and sodium pentobarbitol (25-30 mg/kg as bolus i.v. or 0.16 mg/kg/min as i.v. perfusion).
The pigs or dogs are placed under artificial respiration in ambient air. Analysis of the blood gases (pO2, pCO2) is carried out at regular intervals and oxygen can be supplied via the respirator, if necessary.
The haemodynamic parameters recorded include the left ventricular pressure (LVP; Millar PC350 Tip catheter inserted via the carotid artery), systemic blood pressure (BPs, BPd; full catheter in a femoral artery), the end pressure of the left ventricular diastole (LVEDP), the ventricular contractility (LVPdp/dtmax) and the heart rate (HR).
The haemodynamic variables are recorded continuously for 1 to 3 hours, as a function of the period of action of the compound.
The effects of the compounds studied are shown as the absolute difference with respect to the base value (bv) measured before administration of the compounds and are shown in Table VII (a,b,c).
An antianginal activity is estimated by a fall in the BPs and the LVEDP (fall in venous return).

The next test concerns thoracic aorta. Briefly: Vasorelaxant effect on isolated vessels (rat thoracic aorta rings without endothelium, precontracted with noradrenalin). Also noted: species or system Wistar rats. As to conditions: for Emax: Rattus norvegicus, maximum inhibition of noradrenalin effect, 10^-8 to 10^-4 M substance, read-out: Maximum Relaxation; for IC50: rat aorta, 10^-7 M noradrenalin contraction. The method, boiled down:
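Endothelium-denuded thoracic aorta rings from Wistar rats, held in Krebs-Ringer buffer (pH 7.4, 37 °C, 95% O2/5% CO2) under isometric tension and precontracted with 10^-7 M noradrenalin, received cumulative compound (10^-8 to 10^-4 M). Maximum relaxation given as percent; IC50 calculated when relaxation exceeded 50%.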

The next test relates to anesthetised dogs. Briefly: Haemodynamic effects on anesthetised dogs. The class given is in vivo, dogs (labrador/harrier cross). The following applies: dogs. The method, boiled down:
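Anaesthetised labrador/harrier dogs (16–26 kg; pentobarbital induction then 8 mg/kg/h i.v. infusion, artificial respiration) given compound i.d. or i.v. after ~45 min equilibration. LVP, systolic/diastolic BP, LVEDP, LVdP/dtmax and HR recorded continuously 1–3 h; values are absolute change from pre-dose baseline.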

The values that follow come from US5591758A, “Organic nitrates, processes for their preparation and their use in the treatment of cardiovascular diseases” (Laboratoires Hoechst, SA, priority 1991, dated 1997).

Where a name gives a salt, the structure may show the parent alone.

One may read the IC50 as the point on the concentration scale where inhibition reaches its midpoint. Consider `NCC(=O)N[C@H]1CO[C@H]2[C@@H]1OC[C@@H]2O[N+](=O)[O-]` [Compound 6, Glycine amide of 5-amino-5-deoxy-2-O-nitro-1,4:3,6-dianhydro-L-iditol monohydrochloride], for which the IC50 in test [1] came to 30 µM. In the test on anesthetised pigs (pigs, 1,0 mg/kg i.d.), the “BPs (min), period of action” value is over 180 min; the “BPs, difference to base value” is -31 mmHg; the “LVRDP (min), period of action” value was over 180 min; the “LVRDP, difference to base value” is -4,0 mmHg. In the test with thoracic aorta, the Emax is 45% and the concentration for half-maximal inhibition (IC50) is over 100 µM.

Take `O=C(N[C@H]1CO[C@H]2[C@@H]1OC[C@@H]2O[N+](=O)[O-])[C@@H]1CSCN1` [Compound 30, 5-[[(4-L-Thiazolidinyl)carbonyl]amino]-5-deoxy-2-O-nitro-1,4:3,6-dianhydro-L-iditol monohydrochloride]: in test [1], the IC50 was 32 µM. For the same compound, in the test on anesthetised pigs (pigs, 3,0 mg/kg i.d.), the “BPs (min), period of action” value is given as over 60 min; the “BPs, difference to base value” is listed as -40 mmHg; the “LVRDP (min), period of action” value was over 60 min; the “LVRDP, difference to base value” is -2,0 mmHg. For the same compound, in the test on thoracic aorta, the Emax is 100% and half-maximal inhibition (IC50) was put at 10 µM.

As to `O=C(O[C@@H]1CO[C@H]2[C@@H]1OC[C@@H]2O[N+](=O)[O-])c1ccccc1SSc1ccccc1C(=O)O[C@@H]1CO[C@H]2[C@@H]1OC[C@@H]2O[N+](=O)[O-]` [Compound 29, Bis[5-O-[(2-thio)benzoyl]-2-O-nitro-1,4:3,6-dianhydro-D-glucitol]], in the test on anesthetised pigs (pigs, 3 mg/kg i.v.), the “BPs (min), period of action” value is listed as 10 min; the “BPs, difference to base value” is recorded as -42 mmHg; the “LVRDP (min), period of action” value is listed as 16 min; the “LVRDP, difference to base value” was -2,0 mmHg.

On to `CC1(C)SC[C@@H](C(=O)NCC(=O)N[C@H]2CO[C@H]3[C@@H]2OC[C@@H]3O[N+](=O)[O-])N1C=O` [Compound 48, 5-[[2-[[(3-Formyl-2,2-dimethyl-4-L-thiazolidinyl)carbonyl]amino]-1-oxoethyl]amino]-5-deoxy-2-O-nitro-1,4:3,6-dianhydro-L-iditol], for which the IC50 in test [1] was over 100 µM. Further, in the test with anesthetised pigs (pigs, 10,0 mg/kg i.d.), the “BPs (min), period of action” value was over 180 min; the “BPs, difference to base value” is given as -25 mmHg; the “LVRDP (min), period of action” value was over 180 min; the “LVRDP, difference to base value” is -4,0 mmHg. Moreover, in the test on thoracic aorta, the Emax is 25% and the IC50 is over 100 µM.

`CC(=O)NCSC[C@H](NC(=O)OC(C)(C)C)C(=O)O[C@H]1CO[C@H]2[C@@H]1OC[C@H]2O[N+](=O)[O-]` [Compound 20, S-[(Acetylamino)methyl]-N-[(t-butoxy)carbonyl]-L-cysteine ester of 5-O-nitro-1,4:3,6-dianhydro-D-glucitol]: in the test on anesthetised pigs (pigs, 10 mg/kg i.v.), the “BPs (min), period of action” value was 5 min; the “BPs, difference to base value” is -20 mmHg; the “LVRDP (min), period of action” value is given as 5 min; the “LVRDP, difference to base value” was -4,0 mmHg. In the test on thoracic aorta, the Emax amounted to 85% and the 50% inhibitory concentration (IC50) is 28 µM.

Regarding `CC(=O)NCSc1ccccc1C(=O)O[C@H]1CO[C@H]2[C@@H]1OC[C@H]2O[N+](=O)[O-]` [Compound 23], in the test with anesthetised pigs (pigs, 10,0 mg/kg i.d.), the “BPs, difference to base value” came to 0 mmHg and the “LVRDP, difference to base value” worked out at 0 mmHg.

Consider `CC1(C)SC[C@@H](C(=O)N[C@H]2CO[C@H]3[C@@H]2OC[C@@H]3O[N+](=O)[O-])N1C=O` [Compound 31, 5-[[(3-Formyl-2,2-dimethyl-4-L-thiazolidinyl)carbonyl]amino]-5-deoxy-2-O-nitro-1,4:3,6-dianhydro-L-iditol monohydrochloride], for which, in the test on anesthetised pigs (pigs, 10,0 mg/kg i.d.), the “BPs (min), period of action” value is given as over 60 min; the “BPs, difference to base value” is given as -15 mmHg; the “LVRDP (min), period of action” value was over 60 min; the “LVRDP, difference to base value” is on record as -2,0 mmHg. In the test with thoracic aorta, the Emax came to 83% and the IC50 came out at 25 µM.

Turning to `CC(=O)NCSC[C@H](NC(=O)OC(C)(C)C)C(=O)N[C@H]1CO[C@H]2[C@@H]1OC[C@@H]2O[N+](=O)[O-]` [Compound 33, S-[(Acetylamino)methyl]-N-[(t-butoxy)carbonyl]-L-cysteine amide of 5-amino-5-deoxy-2-O-nitro-1,4:3,6-dianhydro-L-iditol], in the test with anesthetised pigs (pigs, 10,0 mg/kg i.d.), the “BPs (min), period of action” value is on record as over 60 min; the “BPs, difference to base value” is listed as -12 mmHg; the “LVRDP (min), period of action” value is listed as over 60 min; the “LVRDP, difference to base value” is -3,0 mmHg. Moreover, in the test with thoracic aorta, the Emax was 50% and the IC50 is over 100 µM.

As to `O=C(CNC(=O)c1ccccc1SCc1ccccc1)N[C@H]1CO[C@H]2[C@@H]1OC[C@@H]2O[N+](=O)[O-]` [Compound 47, 5-[[[[2-[(Phenylmethyl)thio]benzoyl]amino]-1-oxoethyl]amino]-5-deoxy-2-O-nitro-1,4:3,6-dianhydro-L-iditol], in test [1], the IC50 worked out at 2 µM. Moreover, in the test with anesthetised pigs (pigs, 10,0 mg/kg i.d.), the “BPs (min), period of action” value was over 120 min; the “BPs, difference to base value” was -10 mmHg; the “LVRDP (min), period of action” value is on record as over 90 min; the “LVRDP, difference to base value” is recorded as -1,0 mmHg.

Take `CC(=O)NCSC[C@H](N)C(=O)N[C@H]1CO[C@H]2[C@@H]1OC[C@@H]2O[N+](=O)[O-]` [Compound 34, S-[(Acetylamino)methyl]-L-cysteine amide of 5-amino-5-deoxy-2-O-nitro-1,4:3,6-dianhydro-L-iditol monohydrochloride]: in the test on anesthetised pigs (pigs, 10,0 mg/kg i.d.), the “BPs (min), period of action” value was over 180 min; the “BPs, difference to base value” is listed as -22 mmHg; the “LVRDP (min), period of action” value was over 180 min; the “LVRDP, difference to base value” is reported as -4,0 mmHg. Further, in the test with thoracic aorta, the Emax is 25% and the IC50 is over 100 µM.

With `CSCC[C@H](NC(=O)OC(C)(C)C)C(=O)N[C@H]1CO[C@H]2[C@@H]1OC[C@@H]2O[N+](=O)[O-]` [Compound 37, N-[(t-Butoxy)carbonyl]-L-methionine amide of 5-amino-5-deoxy-2-O-nitro-1,4:3,6-dianhydro-L-iditol], in the test on thoracic aorta, the Emax worked out at 100% and the IC50 is 13 µM. Also, in the test with anesthetised dogs (10 mg/kg i.v.), the “BPs (min), period of action” value is recorded as over 90 min; the “BPs, difference to base value” is reported as -25 mmHg; the “LVEDP (min), period of action” value was determined as 30 min; the “LVEDP, difference to base value” was -2,0 mmHg.

On to `CC(C)(C)OC(=O)N1CSC[C@H]1C(=O)O[C@H]1CO[C@H]2[C@@H]1OC[C@H]2O[N+](=O)[O-]` [Compound 18, 2-O-[(3-t-Butoxycarbonyl-4-L-thiazolidinyl)carbonyl]-5-O-nitro-1,4:3,6-dianhydro-D-glucitol], for which, in the test with thoracic aorta, the Emax turned out to be 75% and 72 µM corresponded to half-maximal inhibition (IC50). Further, in the test with anesthetised dogs (10 mg/kg i.v.), the “BPs (min), period of action” value is over 30 min; the “BPs, difference to base value” is listed as -10 mmHg; the “LVEDP (min), period of action” value is on record as over 30 min; the “LVEDP, difference to base value” is 3,0 mmHg.

In the case of `CSCC[C@H](NC(=O)OC(C)(C)C)C(=O)N[C@H]1CO[C@H]2[C@@H]1OC[C@H]2O[N+](=O)[O-]` [Compound 43, N-[(t-Butoxy)carbonyl]-L-methionine amide of 2-amino-2-deoxy-5-O-nitro-1,4:3,6-dianhydro-D-glucitol], in the test with thoracic aorta, the Emax was determined as 80% and the half-inhibitory concentration (IC50) came to 32 µM. In the test with anesthetised dogs (10 mg/kg i.v.), the “BPs (min), period of action” value was determined as 90 min; the “BPs, difference to base value” is reported as -20 mmHg; the “LVEDP (min), period of action” value was found to be 60 min; the “LVEDP, difference to base value” is reported as -1,0 mmHg.

Consider `CC(C)(C)OC(=O)NCC(=O)O[C@H]1CO[C@H]2[C@@H]1OC[C@H]2O[N+](=O)[O-]` [Compound 1, N-[(t-Butoxy)carbonyl]glycine ester of 5-O-nitro-1,4:3,6-dianhydro-D-glucitol], for which, in the test with thoracic aorta, the Emax came to 83% and the IC50 is 32 µM. In addition, in the test on anesthetised dogs (3 mg/kg i.v.), the “BPs (min), period of action” value is recorded as 10 min; the “BPs, difference to base value” was 5 mmHg; the “LVEDP (min), period of action” value is given as 10 min; the “LVEDP, difference to base value” was 1,0 mmHg.
